Experimental findings from patent US8022036B2, “Use of thymosin alpha 1 for the treatment of immunological diseases” (Sigma-Tau Industrie Farmaceutiche Riunite S.p.A., priority 2006, dated 2011) are described below.

In one experiment the test system is splenic CD4+ T cells. Briefly: Th1/T reg priming in vitro of splenic CD4+ T cells by Aspergillus-pulsed DCs (ELISPOT, flow cytometry). It counts as cell-based, mouse. The method, then:
IDO expression and functional activity were assessed as described in Nat. Immunol. 2002; 3:1097-1101. Generation, purification and activity of T reg cells Splenic CD4+ T-cells were cocultured with conidia-pulsed DCs for 5 days […] before flow cytometry or ELISPOT assay. 1-MT (Sigma-Aldrich) was used at 2 μM. CD4+CD25+ and CD4+CD25− cells (>90% pure on FACS analysis) were separated by magnetic cell sorting from lung and TLN (J. Immunol. 2006; 176:1712-1723). For T reg cell inhibition, 5×10^4 TLN T reg cells were added to 3×10^5 CD4+CD25− cells, both from transplanted mice, stimulated with 3×10^4 autologous Aspergillus conidia-pulsed spDCs or with or 1.5×10^5 allogeneic spDCs from naïve donor mice for five days before H^3-thymidine labeling. Purified peritoneal CD 11b+Gr−1+PMN (>98% pure on FACS analysis) (2×10^6) were exposed to resting conidia in the presence of 4×10^5 CD4+CD25+ for 60 min for oxidant production or 24 hours for cytokine production (J. Immunol. 2006; 176:1712-1723).
(§1) Cytokine content was assessed by enzyme-linked immunosorbent assays (Endogen Human Elisa Kits, R&D Systems and Euroclone, Milan, Italy). AID EliSpot assay kits (Amplimedical, Buttigliera Alta, Turin, Italy) were used on purified splenic CD4+ Tcells cocultured with conidia-pulsed DCs for 5 days to enumerate cytokine-producing cells (Blood. 2003; 102:3807-3814). 1-MT was used at 2 μM.
(A) Frequency of IFN-γ-/IL-10-producing splenic CD4+ T cells activated by Aspergillus-pulsed Thymosin alpha 1-treated GM-DCs or FL-DCs. 1-MT was present in selected cultures. Plates were read with the AID-EliSpot Reader System (Amplimedical). Values are means±SE per 10^6 cells of samples from 3-5 experiments, calculated using replicates of serial twofold dilutions of cells. (*) P<0.05, conidia-exposed versus unexposed cells; (**) P<0.05, thymosin-exposed versus unexposed cells.
(B) Phenotypic analysis of CD4+ cells cultured alone (−) or as in (A). Numbers represent the percentage of double positive cells.
In general terms: Flow cytometry measures light scatter and fluorescence of single cells or particles in a stream.

A further experiment has as its system GM-DCs or FL-DCs. As to the kind of experiment: Cytokine production (ELISA) by murine GM-DCs or FL-DCs with Aspergillus conidia. It counts as cell-based, mouse. To be noted: 1-MT added at 2 μM.
From the text: GM-DCs or FL-DCs were obtained from purified CD14+ monocytes from healthy donors or transplanted patients (1 month post-HSCT) cultured in Iscove's modified medium for 7-9 days, in the presence of rGM-CSF (Schering-Plough, Milan, Italy) and rIL-4 (Peprotech, Inalco, Milan, Italy) or FLT3-L (Immunex Corporation, Seattle, Wash.) (Blood. 2004; 103:4232-4239). DC recovery was between 20-30% reduced in cultures from transplanted patients. Murine GM-DCs or FL-DCs were obtained from bone marrow cells for 7-9 days, as described (Blood. 2004; 103:4232-4239). Thymosin alpha 1 and sThymosin alpha 1 were added to the cultures at 20 ng/mL. DCs (>99% CD11c+ consisting of 90-95% CD8-, 5-10% CD8+, and 1-5% B220+ cells) were purified from spleens (spDCs) by magnetic-activated sorting using CD11c MicroBeads and MidiMacs (Miltenyi Biotech). DC populations were further separated into CD8−, CD8+ and B220+ fractions by means of CD8 or B220 MicroBeads (Miltenyi Biotech). DCs were pulsed in serum-free Iscove medium for 24 hours with live unopsonized Aspergillus conidia or Zymosan from Saccharomyces cerevisiae (Sigma) or CpG-ODN 2006 as described.7 Phagocytosis was done as described (Blood. 2004; 103:4232-4239). Photographs were taken using a high Resolution Microscopy Color Camera AxioCam, using the AxioVision Software Rel. 3.1 (Carl Zeiss, Milan, Italy).
as §1
(B) Cytokine production (ELISA) by GM-DCs or FL-DCs cultured in serum-free medium (1×10^6 cells/mL) with unopsonized Aspergillus conidia (5×10^5/mL) for 24 hours. The IDO inhibitor 1-MT was added at 2 μM. Data are aggregated results from three independent experiments. The detection limits (pg/mL) of the assays were <16 for IL-12p70 and <12 for IL-10.
(ELISA stands for enzyme-linked immunosorbent assay.)

`Cn1cc(CC(N)C(=O)O)c2ccccc21` (racemic) [1-MT, 1-methyl-DL-tryptophan]: the “expansion of Foxp3+CTLA4+CD25+ T cells co-cultured with FL-DCs” value with splenic CD4+ T cells (1-MT) was “appeared to interfere with the expansion”. In the experiment on splenic CD4+ T cells (IDO blockade, 1-MT 2 μM), the IFN-γ-producing cells entry is listed as “had no effect” and the “activation of IL-10-producing CD4+ cells” value is on record as “prevented activation”. Further, in the experiment with GM-DCs or FL-DCs, the “IL-10 production by DCs in response to Thymosin alpha 1” value is “blocked”.
